Results from patent US20160052926A1, “NOVEL PYRIMIDINE AND PYRIDINE COMPOUNDS AND USAGE THEREOF” (HUTCHISON MEDIPHARMA LIMITED, priority 2013, published 2016).

Key:
[1] = system: RT-112; assay: Cellular Proliferation Assay (Cell Counting Kit-8), RT-112; assay type: cell-based; details: Homo sapiens, RT-112 cells, 72 hours
How it was run: (§1)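 Proliferation was read as OD at 450 nm after 1 h with CCK-8, following 72 h drug exposure at 37 °C, 5% CO2. Inhibition was calculated against cells in 0.5% DMSO minus medium blank, and the 50% point reported. The compound series (10–0.004 μM, pre-addition, in 5% DMSO) was added one day after plating KG-1, SNU-16 and RT-112 at 30,000, 5,000 and 1,000 cells/well respectively.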

[2] = target: FGFR3 kinase (Homo sapiens, UniProt P22607); assay: Z-Lyte Kinase Assay of FGFR3; assay type: biochemical
Chain of FGFR3 kinase (P22607 23-806): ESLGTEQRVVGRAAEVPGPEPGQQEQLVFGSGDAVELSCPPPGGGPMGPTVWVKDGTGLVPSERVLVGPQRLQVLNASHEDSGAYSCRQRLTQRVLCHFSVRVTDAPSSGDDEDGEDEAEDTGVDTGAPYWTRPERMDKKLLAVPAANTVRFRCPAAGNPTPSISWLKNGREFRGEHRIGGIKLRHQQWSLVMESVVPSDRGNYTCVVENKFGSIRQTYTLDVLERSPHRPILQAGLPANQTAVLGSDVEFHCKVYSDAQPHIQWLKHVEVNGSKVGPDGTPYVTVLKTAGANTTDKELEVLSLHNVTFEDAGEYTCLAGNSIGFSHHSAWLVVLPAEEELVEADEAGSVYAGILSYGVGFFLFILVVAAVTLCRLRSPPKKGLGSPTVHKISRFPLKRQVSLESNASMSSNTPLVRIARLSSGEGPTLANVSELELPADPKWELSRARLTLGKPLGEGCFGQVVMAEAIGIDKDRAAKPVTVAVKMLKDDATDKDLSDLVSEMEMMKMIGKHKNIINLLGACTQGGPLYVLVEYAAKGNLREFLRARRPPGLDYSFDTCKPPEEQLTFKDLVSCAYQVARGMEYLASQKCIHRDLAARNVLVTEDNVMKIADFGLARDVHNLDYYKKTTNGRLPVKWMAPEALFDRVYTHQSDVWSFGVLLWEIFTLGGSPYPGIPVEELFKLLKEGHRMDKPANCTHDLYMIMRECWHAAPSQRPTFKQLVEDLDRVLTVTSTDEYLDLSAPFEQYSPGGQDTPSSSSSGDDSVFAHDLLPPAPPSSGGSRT
How it was run: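 FRET peptide-cleavage format: 1 h kinase reaction at RT (25-30[…]), then 1 h protease development, then stop and dual-emission read (Ex400, Em445/520 nm). Working solutions: kinase 0.7 μg/ml, Tyr 4 peptide 4 μM, ATP 300 uM in 1.33× buffer; eight compound concentrations from 1 μM, 2% DMSO final.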

[3] = system: KG-1; assay: Cellular Proliferation Assay (Cell Counting Kit-8), KG-1; assay type: cell-based; details: Homo sapiens, KG1 cells, 72 hours
How it was run: as §1

[4] = system: SNU-16; assay: Cellular Proliferation Assay (Cell Counting Kit-8), SNU-16; assay type: cell-based; details: Homo sapiens, SNU-16 cells, 72 hours
How it was run: as §1

[5] = target: Recombinant human FGFR1 (Homo sapiens, UniProt P11362); assay: Transcreener Kinase Assay of FGFR1; assay type: biochemical; details: read-out: FGFR1 (FP) IC50
Chain of Recombinant human FGFR1 (P11362 22-822): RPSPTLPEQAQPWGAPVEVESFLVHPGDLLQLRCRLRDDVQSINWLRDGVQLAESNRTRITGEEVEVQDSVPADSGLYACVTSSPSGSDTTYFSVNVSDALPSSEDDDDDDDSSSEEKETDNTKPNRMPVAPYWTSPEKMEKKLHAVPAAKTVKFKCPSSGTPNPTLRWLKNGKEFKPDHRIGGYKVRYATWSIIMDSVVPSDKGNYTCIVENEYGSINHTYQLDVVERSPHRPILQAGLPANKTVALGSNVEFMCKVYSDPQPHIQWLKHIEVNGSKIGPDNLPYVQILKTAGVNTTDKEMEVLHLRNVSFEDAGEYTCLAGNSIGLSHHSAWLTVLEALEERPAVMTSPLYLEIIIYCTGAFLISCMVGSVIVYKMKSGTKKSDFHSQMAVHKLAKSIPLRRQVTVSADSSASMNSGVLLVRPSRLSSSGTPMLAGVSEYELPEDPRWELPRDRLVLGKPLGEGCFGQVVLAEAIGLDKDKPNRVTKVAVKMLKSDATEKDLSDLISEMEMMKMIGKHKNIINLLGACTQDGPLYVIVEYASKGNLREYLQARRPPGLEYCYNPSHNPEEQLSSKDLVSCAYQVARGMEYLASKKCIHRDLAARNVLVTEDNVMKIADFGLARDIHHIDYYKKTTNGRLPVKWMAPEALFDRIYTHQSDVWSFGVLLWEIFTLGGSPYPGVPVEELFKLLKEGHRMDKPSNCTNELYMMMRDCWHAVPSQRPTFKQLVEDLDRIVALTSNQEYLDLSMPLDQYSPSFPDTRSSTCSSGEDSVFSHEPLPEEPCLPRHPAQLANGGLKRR

[6] = target: Recombinant human FGFR2 (Homo sapiens, UniProt P21802); assay: Transcreener Kinase Assay of FGFR2; assay type: biochemical; details: read-out: FGFR2 (FP) IC50
Chain of Recombinant human FGFR2 (P21802 22-821): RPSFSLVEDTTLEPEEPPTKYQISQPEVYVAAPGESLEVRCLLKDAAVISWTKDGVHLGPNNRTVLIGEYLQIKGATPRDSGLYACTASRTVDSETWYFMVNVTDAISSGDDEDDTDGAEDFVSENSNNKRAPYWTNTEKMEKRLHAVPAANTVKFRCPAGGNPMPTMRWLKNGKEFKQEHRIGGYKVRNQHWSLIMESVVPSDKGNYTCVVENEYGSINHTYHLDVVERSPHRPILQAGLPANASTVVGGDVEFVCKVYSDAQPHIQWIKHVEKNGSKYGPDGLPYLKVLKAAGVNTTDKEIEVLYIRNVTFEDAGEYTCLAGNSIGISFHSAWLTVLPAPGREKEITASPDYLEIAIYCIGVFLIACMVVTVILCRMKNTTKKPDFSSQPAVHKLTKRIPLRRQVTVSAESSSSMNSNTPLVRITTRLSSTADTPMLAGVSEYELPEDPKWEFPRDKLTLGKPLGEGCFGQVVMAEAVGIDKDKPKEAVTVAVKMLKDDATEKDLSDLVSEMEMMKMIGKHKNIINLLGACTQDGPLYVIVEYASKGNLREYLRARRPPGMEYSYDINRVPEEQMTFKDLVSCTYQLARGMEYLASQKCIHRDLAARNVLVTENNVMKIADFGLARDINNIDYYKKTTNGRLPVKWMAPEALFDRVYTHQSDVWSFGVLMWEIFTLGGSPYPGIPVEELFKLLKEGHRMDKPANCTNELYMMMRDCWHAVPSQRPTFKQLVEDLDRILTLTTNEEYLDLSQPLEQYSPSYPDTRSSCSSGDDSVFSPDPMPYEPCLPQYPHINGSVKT

SMILES | IC50 [1] [nM] | IC50 [2] [nM] | IC50 [3] [nM] | IC50 [4] [nM] | IC50 [5] [nM] | IC50 [6] [nM]
CNC(=O)c1cc(CCc2cnc(Nc3ccc(N4C[C@@H](C)N[C@@H](C)C4)cc3)nc2)c(F)c(OC)c1 [Compound 21, 3-(2-(2-((4-((3R,5S)-3,5-dimethylpiperazin-1-yl)phenyl)amino)pyrimidin-5-yl)ethyl)-4-fluoro-5-methoxy-N-methylbenzamide] | 52 | 14 | 40 | 16 | 9 | 6
CONC(=O)c1cc(COc2cnc(Nc3cnn(C)c3)nc2)c(Cl)c(OC)c1 [Compound 185] | 5 | 4 | 2 | 2 | 5 | 3
CNC(=O)c1cc(CCc2cnc(Nc3ccc4nc(C)oc4c3)nc2)c(F)c(OC)c1 [Compound 34] | 308 | 46 | 132 | 58 | 33 | 13
CNC(=O)c1cc(CCc2cnc(Nc3cnn(C[C@H](C)O)c3)nc2)c(F)c(OC)c1 [Compound 32] | 104 | 5 | 57 | 30 | 18 | 6
CNC(=O)c1cc(CCc2cnc(Nc3cnn(C(F)F)c3)nc2)c(Cl)c(OC)c1 [Compound 149] | 21 | 33 | 67 | 17 | 15 | 8
CCN1CC(n2cc(Nc3ncc(CCc4cc(C(=O)NC)cc(OC)c4F)cn3)cn2)C1 [Compound 167] | 382 | 15 | 62 | 48 | 18 | 10
CNC(=O)c1cc(CCc2cnc(Nc3cnn(-c4ccc(C)nc4)c3)nc2)c(F)c(OC)c1 [Compound 134] | 84 | 24 | 33 | 34 | 71 | 8
CNC(=O)c1cc(CCc2cnc(Nc3cnn([C@H]4CCCNC4)c3)nc2)c(F)c(OC)c1 [Compound 163] | 584 | 8 | 201 | 60 | 7 | 6
CNC(=O)c1cc(CCc2cnc(Nc3cnc4ccnn4c3)nc2)c(F)c(OC)c1 [Compound 94] | 287 | 213 | 344 | 170 | 161 | 53
CNC(=O)c1cc(CCc2cnc(Nc3cnn(C[C@@H](C)O)c3)nc2)c(F)c(OC)c1 [Compound 33] | 135 | 17 | 47 | 19 | 22 | 7
CCN1CCC(Cn2cc(Nc3ncc(CCc4cc(C(=O)NC)cc(OC)c4Cl)cn3)cn2)CC1 [Compound 155] | 12 | 4 | 461 | 18 | 10 | 4
CNC(=O)c1cc(CCc2cnc(Nc3nc(C4CC4)cs3)nc2)c(Cl)c(OC)c1 [Compound 71] | 101 | 591 | 398 | 708 | 126 | 53
CNC(=O)c1cc(CCc2cnc(Nc3cnn(CCCOC)c3)nc2)c(F)c(OC)c1 [Compound 126] | 112 | 17 | 45 | 18 | 15 | 8
CCn1cc(Nc2ncc(CCc3cc(C(=O)NC)cc(OC)c3C#N)cn2)cn1 [Compound 179, 4-cyano-3-(2-(2-((1-ethyl-1H-pyrazol-4-yl)amino)pyrimidin-5-yl)ethyl)-5-methoxy-N-methylbenzamide] | 952 | 91 | 284 | 202 | 69 | 56
CNC(=O)c1cc(CCc2cnc(Nc3cnn(C)c3C)nc2)c(F)c(OC)c1 [Compound 105] | 428 | 30 | 201 | 48 | 31 | 11
CONC(=O)c1cc(CCc2cnc(Nc3ccc(N4C[C@@H](C)N[C@@H](C)C4)c(C)c3)nc2)cc(OC)c1 [Compound 49] | 62 | 8 | 75 | 18 | 6 | 5
CCN1CCN(c2ccc(Nc3ncc(CCc4cc(C(=O)NOC)cc(OC)c4F)cn3)cc2)CC1 [Compound 55] | 16 | 2 | 3 | 4 | 2 | 3

SMILES | IC50 [1] [nM] | IC50 [2] [nM] | IC50 [3] [nM] | IC50 [4] [nM] | IC50 [5] [nM] | IC50 [6] [nM]
CNC(=O)c1cc(CCc2cnc(Nc3ccc(CN4CCN(C)CC4)cc3)nc2)c(F)c(OC)c1 [Compound 99] | 110 | 12 | 30 | 17 | 14 | 7
CNC(=O)c1cc(CCc2cnc(Nc3ccc(N4CCNCC4)cc3)nc2)c(Cl)c(OC)c1 [Compound 196] | 20 | 9 | 51 | 14 | 6 | 5
CNC(=O)c1cc(CCc2cnc(Nc3ccc(CN4CCOCC4)cn3)nc2)c(F)c(OC)c1 [Compound 92, 4-fluoro-3-methoxy-N-methyl-5-(2-(2-((5-(morpholinomethyl)pyridin-2-yl)amino)pyrimidin-5-yl)ethyl)benzamide] | 831 | 198 | 255 | 238 | 164 | 40
CNC(=O)c1cc(CCc2cnc(Nc3ccc4nncn4c3)nc2)c(F)c(OC)c1 [Compound 67] | 263 | 44 | 89 | 71 | 37 | 27
CNC(=O)c1cc(CCc2cnc(Nc3ccc(CN4CCOCC4)nc3)nc2)c(F)c(OC)c1 [Compound 98] | 225 | 26 | 48 | 24 | 32 | 15
CNC(=O)c1cc(COc2cnc(Nc3cnn(C)c3)nc2)c(F)c(OC)c1 [Compound 182] | 33 | 10 | 8 | 19 | 27 | 9
CCn1ncc(Nc2ncc(CCc3cc(C(=O)NC)cc(OC)c3F)cn2)c1C [Compound 110] | 197 | 24 | 95 | 46 | 68 | 14
CNC(=O)c1cc(CCc2cnc(Nc3ccnc(OC)c3)nc2)c(F)c(OC)c1 [Compound 62] | 152 | 33 | 46 | 49 | 20 | 9
CNC(=O)c1cc(CCc2cnc(Nc3cnn([C@@H]4CCCNC4)c3)nc2)c(F)c(OC)c1 [Compound 159, (R)-4-fluoro-3-methoxy-N-methyl-5-(2-(2-(1-(piperidin-3-yl)-1H-pyrazol-4-ylamino)pyrimidin-5-yl)ethyl)benzamide] | 759 | 8 | 290 | 75 | 8 | 6
CNC(=O)c1cc(CCc2cnc(Nc3cnn(CCN4CCOCC4)c3)nc2)c(F)c(OC)c1 [Compound 139] | 146 | 8 | 64 | 22 | 12 | 6
CNC(=O)c1cc(CCc2cnc(Nc3ccc(N4CCOCC4)cc3)nc2)c(F)c(OC)c1 [Compound 11] | 34 | 7 | 40 | 28 | 18 | 9
CNC(=O)c1cc(CCc2cnc(Nc3cnn(-c4ccccn4)c3)nc2)c(Cl)c(OC)c1 [Compound 151] | 626 | 152 | 71 | 149 | 15 | 16
CNC(=O)c1cc(CCc2cnc(Nc3ccc4nnc(C)n4c3)nc2)c(F)c(OC)c1 [Compound 69] | 337 | 42 | 268 | 85 | 42 | 20
CNC(=O)c1cc(CCc2cnc(Nc3cnn(C4CN(C)C4)c3)nc2)c(F)c(OC)c1 [Compound 166] | 592 | 15 | 69 | 57 | 20 | 13
CNC(=O)c1cc(CCc2cnc(Nc3cnn(CCN4CCN(C)CC4)c3)nc2)c(F)c(OC)c1 [Compound 45] | 94 | 10 | 388 | 34 | 14 | 7
CCN(CC)CCCn1cc(Nc2ncc(CCc3cc(C(=O)NC)cc(OC)c3Cl)cn2)cn1 [Compound 88] | 27 | 9 | 214 | 13 | 15 | 6
CNC(=O)c1cc(COc2cnc(Nc3ccc(N4C[C@@H](C)N[C@@H](C)C4)c(C)c3)nc2)c(F)c(OC)c1 [Compound 194] | 27 | 20 | 60 | 31 | 14 | 14
